From patent US20250296938A1, “Compounds that Interact with the Ras Superfamily for the Treatment of Cancers, Inflammatory Diseases, Rasopathies, and Fibrotic Disease” (SHY Therapeutics, LLC, priority 2018, published 2025)

Legend:
[1] = biological target: GTP binding domain of Ras; conditions: literature (Feuerstein 1987; John 1990); cited from earlier work
[2] = biological target: T1, Rac-1 (Homo sapiens, UniProt P63000); test: Scintillation Proximity Assay (SPA), GTP affinity; format: binding
[3] = biological target: T2, Rho-A (Homo sapiens, UniProt P61586); test: Scintillation Proximity Assay (SPA), GTP affinity; format: binding
[4] = biological target: Rac-1 and Rho-A; test: SPA and MST studies, GTP affinity for Rho subfamily members; conditions: read-out: affinity of GTP for the binding domain of Rho subfamily members
Text: (§1) This therefore led to the novel, unanticipated conclusion that compounds such as small molecules could be discovered that would bind to a Ras GTP binding domain and compete with the binding of GTP to Ras.
(§2) See Khawaja et al., “Scintillation proximity assay in lead discovery”, Expert Opin. Drug Discov., 2008 November; 3 (11): 1267-80 regarding SPA procedures. See the following references regarding MST technology: Wienken et al., Nature Communications (2010), Protein binding assays in biological liquids using MicroScale Thermophoresis; Jerabek-Willemsen et al., ASSAY and Drug Development Technologies (2011), Molecular interaction studies using MicroScale Thermophoresis; Lin et al., Cell (2012), Inhibition of basal FGF receptor signaling by dimeric Grb2; Seidel et al., Angewandte Chemie (2012), Label-Free MicroScale Thermophoresis discriminates sites and affinity of protein-ligand binding; Seidel et al., Methods (2012), MicroScale Thermophoresis quantifies biomolecular interactions under previously challenging conditions; Parker & Newstead, Nature (2014), Molecular basis of nitrate uptake by the plant nitrate transporter NRT1.1; and Jerabek-Willemsen et al., Journal of Molecular Structure (2014), MicroScale Thermophoresis: Interaction analysis and beyond.

[5] = biological target: T2, Rho-A; test: MicroScale Thermophoresis (MST), GTP affinity; format: binding
Text: (§3) As disclosed in International Application No. PCT/US2018/038613 and U.S. patent application Ser. No. 16/013,872, the affinity of GTP for the GTP binding domain of K-Ras utilizing a Scintillation Proximity Assay (SPA) and MicroScale Thermophoresis (MST) has been measured. These methods were not available when Wittinghofer and colleagues undertook their studies.
as §1, §2

[6] = biological target: T3, K-Ras (wild type) (Homo sapiens, UniProt P01116); test: MicroScale Thermophoresis (MST), GTP affinity; format: binding
Text: as §3, §1, §2

[7] = biological target: T4, K-Ras (G12D) (Homo sapiens, UniProt P01116, G12D); test: MicroScale Thermophoresis (MST), GTP affinity; format: binding
Text: as §3, §1, §2

[8] = biological target: T5, K-Ras (G12C) (Homo sapiens, UniProt P01116, G12C); test: MicroScale Thermophoresis (MST), GTP affinity; format: binding
Text: as §3, §1, §2

[9] = biological target: T6, K-Ras (Q61H) (Homo sapiens, UniProt P01116, Q61H); test: MicroScale Thermophoresis (MST), GTP affinity; format: binding
Text: as §3, §1, §2

[10] = biological target: K-Ras GTP binding domain; test: SPA and MST studies, GTP affinity across wild type and mutant K-Ras
Text: as §1, §2

[11] = biological target: T3, K-Ras (wild type); test: Scintillation Proximity Assay (SPA), GTP affinity; format: binding
Text: as §3, §1, §2

[12] = biological target: T4, K-Ras (G12D); test: Scintillation Proximity Assay (SPA), GTP affinity; format: binding
Text: as §3, §1, §2

[13] = biological target: T5, K-Ras (G12C); test: Scintillation Proximity Assay (SPA), GTP affinity; format: binding
Text: as §3, §1, §2

[14] = biological target: T6, K-Ras (Q61H); test: Scintillation Proximity Assay (SPA), GTP affinity; format: binding
Text: as §3, §1, §2

[15] = biological target: T1, Rac-1; test: MicroScale Thermophoresis (MST), GTP affinity; format: binding
[16] = system: MEK phosphorylation; test: Western MEK cell-based phosphorylation assay, MIA PaCa-2; conditions: Homo sapiens
Procedure: (§4) Cell lines: Human NSCLC cells NCI-H1975 and tumor-derived pancreatic cancer cell lines Panc-1 and MIA-PaCa-2 were all purchased from American Type Culture Collection and grown in complete RPMI medium (NCI-H1975) or DMEM-High Glucose (Panc1 and MIA-PaCa-2), supplemented with penicillin (100 U/mL), streptomycin (100 μg/mL), and 10% heat-inactivated FBS at 37° C. in a humidified incubator with 5% CO2.
(§5) Method: Cells were plated at 350000 cells/well density in a 12-well plate, allowed 3 hours to adhere to the plate, then starved in the appropriate medium in the presence of 0.5% FBS overnight. The small molecules to be tested were added to the cells in the final concentration of 10 μM in the presence of 0.3% DMSO for 6 hours incubation at 37° C. […] Protein concentration was assessed by BCA protein assay (Thermo Scientific). Phosphorylation level of MEK was determined by western blot.
(§6) Western blot protocol: Equal amounts of protein (15-50 μg) were separated by SDS-PAGE and transferred to nitrocellulose membranes (Invitrogen by Thermo Fisher Scientific). […] Membranes were blocked with 10% milk and phosphorylation levels of MEK were assessed by incubating overnight at 4° C. with anti-phospho-MEK 1/2 (Ser217/Ser221) antibody (Cell Signaling) followed by HRP-conjugated secondary antibody (Jackson Immunoresearch, West Grove, PA). […]

[17] = system: MEK phosphorylation; test: Western MEK cell-based phosphorylation assay, PANC-1; conditions: Homo sapiens
Procedure: as §4
Method: Cells were plated at 350000 cells/well density in a 12-well plate, allowed 3 hours to adhere to the plate, then starved in the appropriate medium in the presence of 0.5% FBS overnight. The small molecules to be tested were added to the cells in the final concentration of 10 μM in the presence of 0.3% DMSO for 6 hours incubation at 37° C. For IC50 value determination, serial dilutions of compounds were added to cells under the same conditions. Next, cells were stimulated with 1.5 ng/ml EGF for 15 minutes then cells were lysed with lysis buffer containing 1% Triton X-100, EDTA, and Halt™ Protease & Phosphatase Inhibitor Cocktail (Thermo Scientific). Protein concentration was assessed by BCA protein assay (Thermo Scientific). Phosphorylation level of MEK was determined by western blot.
Western blot protocol: Equal amounts of protein (15-50 μg) were separated by SDS-PAGE and transferred to nitrocellulose membranes (Invitrogen by Thermo Fisher Scientific). The membrane was stained with Ponceau S Stain (Boston BioProducts) to verify uniform protein loading. Membranes were blocked with 10% milk and phosphorylation levels of MEK were assessed by incubating overnight at 4° C. with anti-phospho-MEK 1/2 (Ser217/Ser221) antibody (Cell Signaling) followed by HRP-conjugated secondary antibody (Jackson Immunoresearch, West Grove, PA). Bands were incubated in Amersham ECL Prime Western Blotting Detection Reagent (GE Healthcare) and visualized using the ChemiDoc MP imaging system (Bio-Rad).

[18] = system: MEK phosphorylation; test: Western MEK cell-based phosphorylation assay, NCI H1975; conditions: Homo sapiens
Procedure: as §4, §5, §6

[19] = system: GTP-bound RAS; test: Cell-based Ras-GTP pulldown assay, PANC-1; conditions: Homo sapiens; for inhibition at 10 µM: 6 hours, EGF stimulation
Procedure: (§7) Cell lines: Human NSCLC cells NCI-H1975, and tumor-derived pancreatic cancer cell lines Panc-1, and MIA-PaCa-2, were all purchased from American Type Culture Collection and grown in complete RPMI medium (NCI-H1975) or DMEM-High Glucose (Panc1 and MIA-PaCa-2), supplemented with penicillin (100 U/mL), streptomycin (100 μg/mL), and 10% heat-inactivated FBS at 37° C. in a humidified incubator with 5% CO2.
(§8) Method: Cells were plated at 2·10^6 cells/well density in a 6-well plate, allowed 3 hours to adhere to the plate, then starved in the appropriate medium in the presence of 0.5% FBS overnight. The small molecules to be tested were added to the cells in the final concentration of 10 μM in the presence of 0.3% DMSO for 6 hours incubation at 37° C. For IC50 value determination, serial dilutions of compounds were added to cells under the same conditions. Next, cells were stimulated with 5 ng/mL EGF for 5 minutes, rinsed with ice-cold PBS and then lysed with 500 μL of lysis/binding/wash buffer (25 mM Tris-HCl, pH 7.2, 150 mM NaCl, 5 mM MgCl2, 5% glycerol, 1% NP40) from Active Ras Detection kit (Cell signaling Technology, #8821) supplemented with Halt™ Protease & Phosphatase Inhibitor Cocktail (Thermo Scientific). To account for significant differences in cell number due to the treatment, a small sample of lysate was saved for protein quantification and the rest of the lysate was snap frozen. Protein concentration was assessed by BCA protein assay (Thermo Scientific). To ensure that equal amount of protein undergoes RBD pulldown, lysates were subsequently thawed (at RT) and adjusted to 1 mg/mL with lysis/binding/wash buffer (0.5 mL volume). Equal amounts of lysate were then added to 0.5 mL lysis buffer containing RAF-RBD (1 mL total volume). Lysates were vortexed, incubated for 10 min on ice and subsequently pre-cleared at 14,000 rpm for 5 min at 4° C. 90% of the pre-cleared lysates were subsequently added to pre-washed glutathione agarose beads from Active Ras Detection kit (Cell signaling Technology, #8821) for 1 hour at 4 °C under constant rocking. The beads were subsequently pelleted, washed 3 times with lysis/binding/wash buffer, and eluted for western blotting with 50 μL of 1×SDS-PAGE sample buffer. Level of GTP-bound RAS was determined by western blot.
(§9) Western blot protocol: Equal volumes of eluate (25 μL) were separated by 16% SDS-PAGE and transferred to nitrocellulose membranes (Invitrogen by Thermo Fisher Scientific). The membrane was stained with Ponceau S Stain (Boston BioProducts) to verify uniform protein loading. […]

[20] = system: GTP-bound RAS; test: Cell-based Ras-GTP pulldown assay, NCI H1975; conditions: Homo sapiens; for inhibition at 10 µM: 6 hours, EGF stimulation
Procedure: as §7, §8, §9

[21] = system: GTP-bound RAS; test: Cell-based Ras-GTP pulldown assay, MIA PaCa-2; conditions: Homo sapiens; for inhibition at 10 µM: 6 hours, EGF stimulation
Procedure: as §7, §8
Western blot protocol: Equal volumes of eluate (25 μL) were separated by 16% SDS-PAGE and transferred to nitrocellulose membranes (Invitrogen by Thermo Fisher Scientific). The membrane was stained with Ponceau S Stain (Boston BioProducts) to verify uniform protein loading. Membranes were blocked with 5% BSA in TBST and then incubated overnight at 4° C. with anti-RAS mouse monoclonal antibody from the Active Ras Detection kit (Cell signaling Technology, #8821), followed by HRP-conjugated secondary antibody (Jackson Immunoresearch, West Grove, PA). Membranes were incubated in Amersham ECL Prime Western Blotting Detection Reagent (GE Healthcare) and bands were visualized using the ChemiDoc MP imaging system (Bio-Rad).

T4 sequence (P01116 1-188 isoform P01116-2 G12D): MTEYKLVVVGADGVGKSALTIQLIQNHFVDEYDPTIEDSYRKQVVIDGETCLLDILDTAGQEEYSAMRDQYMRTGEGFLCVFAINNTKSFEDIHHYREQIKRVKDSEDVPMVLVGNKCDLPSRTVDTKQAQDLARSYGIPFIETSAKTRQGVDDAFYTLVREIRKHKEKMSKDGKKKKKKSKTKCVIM
T3 sequence (P01116 1-188 isoform P01116-2): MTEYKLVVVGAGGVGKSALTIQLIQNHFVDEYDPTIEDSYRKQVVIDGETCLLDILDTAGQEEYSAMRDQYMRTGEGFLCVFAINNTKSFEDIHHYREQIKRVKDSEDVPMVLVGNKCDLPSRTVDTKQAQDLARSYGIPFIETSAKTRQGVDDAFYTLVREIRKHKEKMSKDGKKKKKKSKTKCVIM
T6 sequence (P01116 1-188 isoform P01116-2 Q61H): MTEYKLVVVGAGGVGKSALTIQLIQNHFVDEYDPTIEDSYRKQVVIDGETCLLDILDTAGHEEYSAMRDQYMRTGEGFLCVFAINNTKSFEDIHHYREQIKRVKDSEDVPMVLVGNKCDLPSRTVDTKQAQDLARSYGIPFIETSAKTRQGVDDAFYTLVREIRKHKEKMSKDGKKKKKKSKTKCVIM
T5 sequence (P01116 1-188 isoform P01116-2 G12C): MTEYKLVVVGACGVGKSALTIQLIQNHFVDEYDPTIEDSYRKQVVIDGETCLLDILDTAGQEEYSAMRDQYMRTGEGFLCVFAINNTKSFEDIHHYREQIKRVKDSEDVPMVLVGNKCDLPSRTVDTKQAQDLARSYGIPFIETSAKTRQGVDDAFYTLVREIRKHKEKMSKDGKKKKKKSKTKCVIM
T2 sequence (P61586 whole entry, the tested form may be a part): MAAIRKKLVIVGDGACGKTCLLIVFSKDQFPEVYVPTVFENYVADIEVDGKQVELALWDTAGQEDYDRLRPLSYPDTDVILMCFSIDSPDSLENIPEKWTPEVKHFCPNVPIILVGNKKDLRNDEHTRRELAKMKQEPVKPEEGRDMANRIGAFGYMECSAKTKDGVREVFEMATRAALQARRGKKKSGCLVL

Compound: Nc1nc2c(ncn2[C@@H]2O[C@H](COP(=O)(O)OP(=O)(O)O)[C@@H](O)[C@H]2O)c(=O)[nH]1 [GDP]
- affinity for the GTP binding domain of Ras [1]: single to double digit picomolar

Compound: Nc1nc2c(ncn2[C@@H]2O[C@H](COP(=O)(O)OP(=O)(O)OP(=O)(O)O)[C@@H](O)[C@H]2O)c(=O)[nH]1 [GTP]
- affinity for the GTP binding domain of Ras [1]: single to double digit picomolar
- Kd [2]: 151 ± 14 nM
- Kd [3]: 129 ± 12 nM
- Kd [4]: 120 to 170 nM
- Kd [5]: 130 ± 5 nM
- Kd [6]: 463 ± 2 nM
- Kd [7]: 244 ± 12 nM
- Kd [8]: 207 ± 46 nM
- Kd [9]: 157 ± 21 nM
- Kd [10]: 100 to 465 nM
- Kd [11]: 243 ± 15 nM
- Kd [12]: 270 ± 15 nM
- Kd [13]: 258 ± 18 nM
- Kd [14]: 118 ± 11 nM
- Kd [15]: 166 ± 10 nM

Compound: COCCNc1nc(-c2nccn2C)nc2sc(-c3cccc(OC)c3Cl)c(-c3ccccc3)c12 [drawing 476]
- IC50 [16]: 750 to 1000 nM
- IC50 [17]: 750 to 1000 nM
- IC50 [18]: > 1000 nM

Compound: COc1cccc(-c2sc3nc(-c4nccn4C)nc(N4CCC(OC)C4)c3c2-c2ccccc2)c1F (stereo not drawn) [drawing 477]
- IC50 [17]: > 1000 nM

Compound: CO[C@H]1CCC(Nc2nc(-c3nccn3C)nc3sc(-c4ccn(C)n4)c(-c4ccccc4)c23)C1 (stereo partly drawn) [drawing 478]
- IC50 [16]: > 1000 nM
- IC50 [17]: 750 to 1000 nM
- IC50 [18]: > 1000 nM

Compound: COCCNc1nc(-c2nccn2C)nc2sc(-c3cccc(OC)c3Cl)c(-c3ccccc3)c12 [drawing 1076]
- inhibition at 10 µM [19]: 76 to 100%
- inhibition at 10 µM [20]: 76 to 100%
- inhibition at 10 µM [21]: 76 to 100%

Compound: CO[C@H]1CCC(Nc2nc(-c3nccn3C)nc3sc(-c4ccn(C)n4)c(-c4ccccc4)c23)C1 (stereo partly drawn) [drawing 1077]
- inhibition at 10 µM [19]: 76 to 100%
- inhibition at 10 µM [20]: 76 to 100%
- inhibition at 10 µM [21]: 76 to 100%

Compound: CO[C@H]1CC[C@@H](Nc2nc(-c3nccn3C)nc3sc(-c4ccn(C(C)C)n4)c(C4=CC=CCC=C4)c23)C1 [drawing 1078]
- inhibition at 10 µM [21]: 76 to 100%

Compound: COCCNc1nc(-c2nccn2C)nc2sc(-c3cccc(OC)c3Cl)c(-c3ccccc3)c12 [drawing 1079]
- IC50 [19]: 750 to 1000 nM
- IC50 [20]: > 1000 nM
- IC50 [21]: 750 to 1000 nM

Compound: CO[C@H]1CCC(Nc2nc(-c3nccn3C)nc3sc(-c4ccn(C)n4)c(-c4ccccc4)c23)C1 (stereo partly drawn) [drawing 1080]
- IC50 [19]: 750 to 1000 nM
- IC50 [20]: > 1000 nM
- IC50 [21]: > 1000 nM
